pIC50: −log10 of the molar value.
molecular target: T1, Human sodium/glucose co-transporter type 2 (SGLT2) (Homo sapiens, UniProt P31639); assay: In vitro human SGLT2 inhibition assay (14C-AMG uptake); format: cell-based; settings: HEK293 cells expressing human HA-SGLT2; potent = SGLT2 IC50 of less than about 500 nM; read-out: SGLT2 IC50 (potent SGLT2 inhibitor mark)
T1 construct: HA; expressed in transfected cells
T1 sequence (P31639 1-672): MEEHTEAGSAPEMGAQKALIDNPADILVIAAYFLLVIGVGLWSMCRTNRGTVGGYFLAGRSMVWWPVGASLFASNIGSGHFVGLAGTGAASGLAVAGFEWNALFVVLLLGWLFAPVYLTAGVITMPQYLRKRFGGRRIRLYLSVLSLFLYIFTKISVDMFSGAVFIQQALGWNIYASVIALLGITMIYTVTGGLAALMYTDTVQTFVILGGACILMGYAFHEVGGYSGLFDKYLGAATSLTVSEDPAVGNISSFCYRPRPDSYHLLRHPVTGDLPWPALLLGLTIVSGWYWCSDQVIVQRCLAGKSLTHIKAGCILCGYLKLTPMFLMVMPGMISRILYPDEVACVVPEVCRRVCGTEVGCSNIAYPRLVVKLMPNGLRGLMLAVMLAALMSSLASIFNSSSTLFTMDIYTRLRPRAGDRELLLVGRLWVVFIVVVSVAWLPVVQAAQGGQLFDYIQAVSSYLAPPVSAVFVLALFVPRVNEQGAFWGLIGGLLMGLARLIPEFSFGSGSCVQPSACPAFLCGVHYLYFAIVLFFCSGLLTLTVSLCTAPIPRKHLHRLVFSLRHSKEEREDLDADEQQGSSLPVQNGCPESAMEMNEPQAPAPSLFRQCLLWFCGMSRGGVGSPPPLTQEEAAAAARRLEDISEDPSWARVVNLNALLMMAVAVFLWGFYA
Procedure: HEK293 cells were transfected with the human HA-SGLT2-pIRESpuro2 vector and the bulk stable cell line was selected in presence of 0.5 μg/ml of puromycin. Human HA-SGLT2 cells were maintained in DMEM media containing 10% FBS, 1% GPS and 0.5 μg/ml of puromycin.
The HEK293 cells expressing the human HA-SGLT2 were seeded in 384 well plates (30,000 cells/well) in DMEM media containing 10% FBS, 1% GPS and 0.5 μg/ml of puromycin, then incubated overnight at 37 C, 5% CO2. Cells were then washed with uptake buffer (140 mM NaCl, 2 mM KCl, 1 mM CaCl2, 1 mM MgCl2, 10 mM HEPES, 5 mM Tris, 1 mg/ml bovine serum albumin (BSA), pH 7.3). Twenty microliters of uptake buffer with or without testing compounds were added to the cells. Then, 20 microliters of uptake buffer containing ^14C-AMG (100 nCi) were added to the cells. The cell plates were incubated at 37° C., 5% CO2 for 1-2 hours. After washing the cells with uptake buffer, scintillation fluid was added (40 microliters/well) and ^14C-AMG uptake was measured by counting radioactivity using a scintillation coulter (TopCoulter NXT; Packard Instruments).
The IC50 of a compound with regard to a given target is determined by fitting the relevant data, using the Levenburg Marquardt algorithm, to the equation: y=A+((B−A)/(1+((C/x)^D))) wherein A is the minimum y value; B is the maximum y value; C is the IC50; and D is the slope.

pIC50	Structure (SMILES)
> 6.30	CCOc1ccc(Cc2cc([C@H]3[C@H](O)[C@@H](O)[C@H](O)CN3C(C)=O)ccc2Cl)cc1 [1-{(2S,3S,4S,5R)-2-[4-Chloro-3-(4-ethoxy-benzyl)-phenyl]-3,4,5-trihydroxy-piperidin-1-yl}-ethanone]
> 6.30	CCOc1ccc(Cc2cc([C@@H]3O[C@H](SCC(N)=O)[C@@H](O)[C@H](O)[C@H]3O)ccc2Cl)cc1 [2-{(2R,3S,4R,5R,6S)-6-[4-Chloro-3-(4-ethoxy-benzyl)-phenyl]-3,4,5-trihydroxy-tetrahydro-pyran-2-ylsulfanyl}-acetamide]
> 6.30	CCOc1ccc(Cc2cc([C@@H]3OC(OC)[C@@H](O)[C@H](O)[C@H]3O)ccc2C)cc1 (stereo partly drawn) [(2S,3R,4R,5S)-2-[3-(4-Ethoxy-benzyl)-4-methyl-phenyl]-6-methoxy-tetrahydro-pyran-3,4,5-triol]
> 6.30	CCOc1ccc(Cc2cc([C@@H]3OC(OCC(F)(F)F)[C@@H](O)[C@H](O)[C@H]3O)ccc2Cl)cc1 (stereo partly drawn) [(2S,3R,4R,5S)-2-[4-Chloro-3-(4-ethoxy-benzyl)-phenyl]-6-(2,2,2-trifluoro-ethoxy)-tetrahydro-pyran-3,4,5-triol]
> 6.30	CCOc1ccc(Cc2cc([C@@H]3OC(OCCS)[C@@H](O)[C@H](O)[C@H]3O)ccc2Cl)cc1 (stereo partly drawn) [(2S,3R,4R,5S)-2-[4-Chloro-3-(4-ethoxy-benzyl)-phenyl]-6-(2-mercapto-ethoxy)-tetrahydro-pyran-3,4,5-triol]
> 6.30	CCOc1ccc(Cc2cc([C@@H]3OC(OCCCO)[C@@H](O)[C@H](O)[C@H]3O)ccc2Cl)cc1 (stereo partly drawn) [(2S,3R,4R,5S)-2-[4-Chloro-3-(4-ethoxy-benzyl)-phenyl]-6-(3-hydroxy-propoxy)-tetrahydro-pyran-3,4,5-triol]
> 6.30	COC1O[C@@H](c2cccc(Cc3ccc(OCCO)cc3)c2)[C@H](O)[C@@H](O)[C@@H]1O (stereo partly drawn) [(2S,3R,4R,5S)-2-{3-[4-(2-Hydroxy-ethoxy)-benzyl]-phenyl}-6-methoxy-tetrahydro-pyran-3,4,5-triol]
> 6.30	COC1O[C@@H](c2ccc(Cl)c(Cc3ccc(OC4CCN(C)CC4)cc3)c2)[C@H](O)[C@@H](O)[C@@H]1O (stereo partly drawn) [(2S,3R,4R,5S)-2-{4-Chloro-3-[4-(1-methyl-piperidin-4-yloxy)-benzyl]-phenyl}-6-methoxy-tetrahydro-pyran-3,4,5-triol]
> 6.30	COc1cc(Oc2ccc(Cc3cc([C@@H]4OC(OC)[C@@H](O)[C@H](O)[C@H]4O)ccc3Cl)cc2)nc(OC)n1 (stereo partly drawn) [(2S,3R,4R,5S)-2-{4-Chloro-3-[4-(2,6-dimethoxy-pyrimidin-4-yloxy)-benzyl]-phenyl}-6-methoxy-tetrahydro-pyran-3,4,5-triol]
> 6.30	COC1O[C@@H](c2ccc(Cl)c(Cc3ccc(Oc4nccs4)cc3)c2)[C@H](O)[C@@H](O)[C@@H]1O (stereo partly drawn) [(2S,3R,4R,5S)-2-{4-Chloro-3-[4-(thiazol-2-yloxy)-benzyl]-phenyl}-6-methoxy-tetrahydro-pyran-3,4,5-triol]
> 6.30	CCOc1ccc(Cc2cc([C@@H]3O[C@H](SCC(F)(F)F)[C@@H](O)[C@H](O)[C@H]3O)ccc2Cl)cc1 [(2S,3R,4R,5S,6R)-2-[4-Chloro-3-(4-ethoxy-benzyl)-phenyl]-6-(2,2,2-trifluoro-ethylsulfanyl)-tetrahydro-pyran-3,4,5-triol]

Continued, compound first:

Structure (SMILES)	pIC50
CCOc1ccc(Cc2cc([C@H]3[C@H](O)[C@@H](O)[C@H](O)CN3CC(N)=O)ccc2Cl)cc1 [2-{(2S,3S,4S,5R)-2-[4-Chloro-3-(4-ethoxy-benzyl)-phenyl]-3,4,5-trihydroxy-piperidin-1-yl}-acetamide]	> 6.30
CCOc1ccc(-c2cccc([C@@H]3OC(OC)[C@@H](O)[C@H](O)[C@H]3O)c2)cc1 (stereo partly drawn) [(2S,3R,4R,5S)-2-(4′-Ethoxy-biphenyl-3-yl)-6-methoxy-tetrahydro-pyran-3,4,5-triol]	> 6.30
CCOc1ccc(Cc2cccc([C@@H]3OC(OC)[C@@H](O)[C@H](O)[C@H]3O)c2)cc1 (stereo partly drawn) [(2S,3R,4R,5S)-2-[3-(4-Ethoxy-benzyl)-phenyl]-6-methoxy-tetrahydro-pyran-3,4,5-triol]	> 6.30
CCOc1ccc(Cc2cc([C@@H]3OC(OCC(O)CO)[C@@H](O)[C@H](O)[C@H]3O)ccc2Cl)cc1 (stereo partly drawn) [(2S,3R,4R,5S)-2-[4-Chloro-3-(4-ethoxy-benzyl)-phenyl]-6-(2,3-dihydroxy-propoxy)-tetrahydro-pyran-3,4,5-triol]	> 6.30
CCOc1ccc(Cc2cc([C@@H]3OC(OCCN(C)C)[C@@H](O)[C@H](O)[C@H]3O)ccc2Cl)cc1 (stereo partly drawn) [(2S,3R,4R,5S)-2-[4-Chloro-3-(4-ethoxy-benzyl)-phenyl]-6-(2-dimethylamino-ethoxy)-tetrahydro-pyran-3,4,5-triol]	> 6.30
CCOc1ccc(Cc2cc([C@@H]3OC(OCCOC)[C@@H](O)[C@H](O)[C@H]3O)ccc2Cl)cc1 (stereo partly drawn) [(2S,3R,4R,5S)-2-[4-Chloro-3-(4-ethoxy-benzyl)-phenyl]-6-(2-methoxy-ethoxy)-tetrahydro-pyran-3,4,5-triol]	> 6.30
CCCSC1O[C@@H](c2ccc(Cl)c(Cc3ccc(OCC)cc3)c2)[C@H](O)[C@@H](O)[C@@H]1O (stereo partly drawn) [(2S,3R,4R,5S)-2-[4-Chloro-3-(4-ethoxy-benzyl)-phenyl]-6-propylsulfanyl-tetrahydro-pyran-3,4,5-triol]	> 6.30
COc1ccc(Sc2cc([C@@H]3OC(OC)[C@@H](O)[C@H](O)[C@H]3O)ccc2Cl)cc1 (stereo partly drawn) [(2S,3R,4R,5S)-2-[4-Chloro-3-(4-methoxy-phenylsulfanyl)-phenyl]-6-methoxy-tetrahydro-pyran-3,4,5-triol]	> 6.30
COC1O[C@@H](c2ccc(Cl)c(Cc3ccc(OCCOCc4ccccc4)cc3)c2)[C@H](O)[C@@H](O)[C@@H]1O (stereo partly drawn) [(2S,3R,4R,5S)-2-{3-[4-(2-Benzyloxy-ethoxy)-benzyl]-4-chloro-phenyl}-6-methoxy-tetrahydro-pyran-3,4,5-triol]	> 6.30
COC1O[C@@H](c2ccc(Cl)c(Cc3ccc(OCCO)cc3)c2)[C@H](O)[C@@H](O)[C@@H]1O (stereo partly drawn) [(2S,3R,4R,5S)-2-{4-Chloro-3-[4-(2-hydroxy-ethoxy)-benzyl]-phenyl}-6-methoxy-tetrahydro-pyran-3,4,5-triol]	> 6.30
COCCOc1ccc(Cc2cc([C@@H]3OC(OC)[C@@H](O)[C@H](O)[C@H]3O)ccc2Cl)cc1 (stereo partly drawn) [(2S,3R,4R,5S)-2-{4-Chloro-3-[4-(2-methoxy-ethoxy)-benzyl]-phenyl}-6-methoxy-tetrahydro-pyran-3,4,5-triol]	> 6.30
COC1O[C@@H](c2ccc(Cl)c(Cc3ccc(OCCSC)cc3)c2)[C@H](O)[C@@H](O)[C@@H]1O (stereo partly drawn) [(2S,3R,4R,5S)-2-{4-Chloro-3-[4-(2-methylsulfanyl-ethoxy)-benzyl]-phenyl}-6-methoxy-tetrahydro-pyran-3,4,5-triol]	> 6.30
COC1O[C@@H](c2ccc(Cl)c(Cc3ccc(O[C@H]4CCN(C)C4)cc3)c2)[C@H](O)[C@@H](O)[C@@H]1O (stereo partly drawn) [(2S,3R,4R,5S)-2-{4-Chloro-3-[4-((S)-1-methyl-pyrrolidin-3-yloxy)-benzyl]-phenyl}-6-methoxy-tetrahydro-pyran-3,4,5-triol]	> 6.30
COC1O[C@@H](c2ccc(Cl)c(Cc3ccc(Oc4ccncc4)cc3)c2)[C@H](O)[C@@H](O)[C@@H]1O (stereo partly drawn) [(2S,3R,4R,5S)-2-{4-Chloro-3-[4-(pyridin-4-yloxy)-benzyl]-phenyl}-6-methoxy-tetrahydro-pyran-3,4,5-triol]	> 6.30
COC1O[C@@H](c2ccc(Cl)c(Cc3ccc(Oc4cncnc4)cc3)c2)[C@H](O)[C@@H](O)[C@@H]1O (stereo partly drawn) [(2S,3R,4R,5S)-2-{4-Chloro-3-[4-(pyrimidin-5-yloxy)-benzyl]-phenyl}-6-methoxy-tetrahydro-pyran-3,4,5-triol]	> 6.30
COC1O[C@@H](c2ccc(Cl)c(Cc3ccc(OC4CCOCC4)cc3)c2)[C@H](O)[C@@H](O)[C@@H]1O (stereo partly drawn) [(2S,3R,4R,5S)-2-{4-Chloro-3-[4-(tetrahydro-pyran-4-yloxy)-benzyl]-phenyl}-6-methoxy-tetrahydro-pyran-3,4,5-triol]	> 6.30

Source: patent US7846945B2, “Piperdine-based inhibitors of sodium glucose co-transporter 2 and methods of their use” (Lexicon Pharmaceuticals, Inc., priority 2007, dated 2010)
